# Reference: US7030142B1, “Methods for the treatment of neuroleptic and related disorders using ziprasidone metabolites” (Sepracor Inc., priority 1999, dated 2006)
# Where a name gives a salt, the structure may show the parent alone.
# How the values were obtained:
# [1] = ziprasidone administered orally; cited from earlier work
# D2 dopamine receptors = D2 dopamine receptors (Homo sapiens, UniProt P14416); experiment: Competition radioreceptor assay, D2 dopamine receptors; settings: 90 minute incubation; (+)-butaclamol (0.25 μM) defining nonspecific binding; read-out: KD of radioligand
# D2 dopamine receptors, sequence (P14416 whole entry): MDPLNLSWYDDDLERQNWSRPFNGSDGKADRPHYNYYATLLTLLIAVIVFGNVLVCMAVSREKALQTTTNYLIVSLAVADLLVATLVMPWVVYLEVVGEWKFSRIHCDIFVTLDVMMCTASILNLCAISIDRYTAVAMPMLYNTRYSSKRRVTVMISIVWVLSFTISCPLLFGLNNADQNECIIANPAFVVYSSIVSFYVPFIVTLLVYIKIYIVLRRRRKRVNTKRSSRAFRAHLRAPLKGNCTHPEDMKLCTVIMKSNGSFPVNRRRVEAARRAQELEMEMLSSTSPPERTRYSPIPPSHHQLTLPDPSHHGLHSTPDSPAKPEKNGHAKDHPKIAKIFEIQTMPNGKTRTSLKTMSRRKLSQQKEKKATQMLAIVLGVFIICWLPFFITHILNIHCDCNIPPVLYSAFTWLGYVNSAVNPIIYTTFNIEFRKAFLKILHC
# Description: Competition radioreceptor assays are used to determine the affinity (IC50's) of the phenylaminotetralins and other reference ligands for D2 dopamine receptors. […] Jarvie, J. R. et al., Eur. J. Pharmacol., 144:163–171 (1987) and Kula, N. S. et al., Dev. Brain Res., 66:286–287 (1992). […] Test agents are evaluated by running, in duplicate, six or more concentrations that bracketed the IC50. Three replications are performed, and the resulting data are analyzed using the ALLFIT program.
# 5-HT1A = biological target: T1, 5-HT1A (Homo sapiens, UniProt P08908); settings: Seeger et al. 1995; cited from earlier work
# T1 sequence (P08908 1-422): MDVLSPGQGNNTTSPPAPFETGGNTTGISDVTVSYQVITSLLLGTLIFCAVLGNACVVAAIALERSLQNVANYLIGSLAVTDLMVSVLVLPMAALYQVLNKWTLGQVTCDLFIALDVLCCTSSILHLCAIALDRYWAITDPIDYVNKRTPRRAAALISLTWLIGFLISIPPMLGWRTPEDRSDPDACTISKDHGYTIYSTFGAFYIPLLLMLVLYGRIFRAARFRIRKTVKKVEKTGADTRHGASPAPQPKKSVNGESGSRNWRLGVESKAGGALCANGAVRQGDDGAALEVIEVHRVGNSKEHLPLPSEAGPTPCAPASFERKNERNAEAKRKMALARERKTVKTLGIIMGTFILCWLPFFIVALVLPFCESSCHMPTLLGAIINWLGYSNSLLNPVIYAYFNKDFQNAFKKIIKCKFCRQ
# dopamine D2 receptor = dopamine D2 receptor (Homo sapiens, UniProt P14416); settings: Seeger et al. 1995; cited from earlier work
# dopamine D2 receptor, sequence (P14416 whole entry, species assumed): as the sequence (P14416 whole entry) above
# 5-HT1D = 5-HT1D (Homo sapiens, UniProt P28221); settings: Seeger et al. 1995; cited from earlier work
# 5-HT1D, sequence (P28221 whole entry, species assumed): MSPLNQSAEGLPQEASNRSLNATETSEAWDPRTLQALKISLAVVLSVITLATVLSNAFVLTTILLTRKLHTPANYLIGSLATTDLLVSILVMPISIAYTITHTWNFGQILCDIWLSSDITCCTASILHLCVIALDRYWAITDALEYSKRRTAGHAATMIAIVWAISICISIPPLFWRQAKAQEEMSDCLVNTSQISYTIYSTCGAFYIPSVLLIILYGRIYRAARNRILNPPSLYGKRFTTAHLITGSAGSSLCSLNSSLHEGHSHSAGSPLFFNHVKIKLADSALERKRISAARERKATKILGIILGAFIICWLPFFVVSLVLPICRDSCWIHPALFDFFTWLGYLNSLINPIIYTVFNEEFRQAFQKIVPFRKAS
# 5-HT2C = biological target: T2, 5-HT2C (Homo sapiens, UniProt P28335); settings: Seeger et al. 1995; cited from earlier work
# T2 sequence (P28335 33-458): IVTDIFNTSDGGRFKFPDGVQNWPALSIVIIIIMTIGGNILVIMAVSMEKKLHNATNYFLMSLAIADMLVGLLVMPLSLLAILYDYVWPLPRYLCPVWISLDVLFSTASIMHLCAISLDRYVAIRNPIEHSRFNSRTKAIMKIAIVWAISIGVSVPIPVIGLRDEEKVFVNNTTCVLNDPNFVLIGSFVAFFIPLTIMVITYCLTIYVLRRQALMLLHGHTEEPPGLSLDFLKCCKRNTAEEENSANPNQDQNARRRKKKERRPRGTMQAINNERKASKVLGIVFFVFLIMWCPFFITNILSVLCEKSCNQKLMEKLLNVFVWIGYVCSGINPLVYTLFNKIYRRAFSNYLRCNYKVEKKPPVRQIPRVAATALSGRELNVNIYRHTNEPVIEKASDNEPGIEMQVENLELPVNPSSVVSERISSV
# 5-HT2 receptor = settings: Seeger et al. 1995; cited from earlier work
compound,measurement,setting,value
"O=C1Cc2cc(CCN3CCN(C4=NS(=O)(=O)c5ccccc54)CC3)c(Cl)cc2N1 [ZIP-SO2, ziprasidone sulfone]",share of ziprasidone metabolites found in human urine,[1],less than 3%
"O=C1Cc2cc(CCN3CCN(c4n[s+]([O-])c5ccccc45)CC3)c(Cl)cc2N1 (centres unmarked) [ZIP-SO, ziprasidone sulfoxide]",share of ziprasidone metabolites found in human urine,[1],less than 10%
CN1CCc2cc(Cl)c(O)cc2C(c2ccccc2)C1 (centres unmarked) [[^3H]SCH23390],Kd,D2 dopamine receptors,0.34 nM
"O=C1Cc2cc(CCN3CCN(c4nsc5ccccc45)CC3)c(Cl)cc2N1 [ziprasidone, (5-[2-{4-(1,2-benzisothiazol-3-yl)piperizin-1-yl}ethyl]-6-chlorooxindole)hydrochloride hydrate]",affinity for 5-HT1A receptor subtype,5-HT1A,high affinity
same,dopamine D2 receptor antagonist,dopamine D2 receptor,highly potent and selective
same,affinity for 5-HT1D receptor subtype,5-HT1D,high affinity
same,affinity for 5-HT2C receptor subtype,5-HT2C,high affinity
same,5-HT2 receptor antagonist,5-HT2 receptor,highly potent and selective
